Test results as given in patent US20230085307A1, “PYRIDAZINONE COMPOUND AND HERBICIDE” (NISSAN CHEMICAL CORPORATION, priority 2019, published 2023).

Assays:
barnyard grass [1] = test: Test Example 5: herbicidal effect by foliage application, plastic box (Table 20, symbol H); type: in vivo, barnyard grass (Echinochloa crus-galli); details: 320 g/ha, foliage application after 14-day growth, evaluated three weeks after application
Method in brief: (§1)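 Plants sown in sterilized diluvial soil and grown 14 days in a greenhouse at 25° C to 30° C, then sprayed on the foliage with the compound's emulsion diluted in water to a predetermined herbicide amount. Injury to weeds and crops scored three weeks after application on a visual rating scale.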

velvetleaf [2] = test: Test Example 5: herbicidal effect by foliage application, plastic box (Table 20, symbol M); type: in vivo, velvetleaf (Abutilon theophrasti); details: 320 g/ha, foliage application after 14-day growth, evaluated three weeks after application
Method in brief: as §1

redroot pigweed [3] = test: Test Example 4: herbicidal effect by soil treatment (Table 19, symbol N); type: in vivo, redroot pigweed (Amaranthus retroflexus); details: amount of applied herbicide 320 g/ha
Method in brief: (§2)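 Seeds were sown in sterilized diluvial soil and covered with about 1.5 cm of soil. An emulsion formulation diluted with water to a predetermined herbicide amount was sprayed evenly onto the soil surface. Plants grew in a greenhouse at 25° C. to 30° C., and the effect was scored three weeks after application using criteria from an earlier test.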

redroot pigweed [4] = test: Test Example 5: herbicidal effect by foliage application, plastic box (Table 20, symbol N); type: in vivo, redroot pigweed (Amaranthus retroflexus); details: 320 g/ha, foliage application after 14-day growth, evaluated three weeks after application
Method in brief: as §1

wild oat [5] = test: Test Example 5: herbicidal effect by foliage application, plastic box (Table 20, symbol I); type: in vivo, wild oat (Avena fatua); details: 320 g/ha, foliage application after 14-day growth, evaluated three weeks after application
Method in brief: as §1

barnyard grass [6] = test: Test Example 3: herbicidal effect by foliage application, Wagner pot (Table 18, symbol H); type: in vivo, barnyard grass (Echinochloa crus-galli); details: 320 g/ha
Method in brief: (§3)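 Plants were sown in alluvial soil held under 0.1–0.5 cm standing water and grown 14 days in a greenhouse at 25–30 °C. An emulsifiable formulation, water-diluted to the set dose, was then sprayed onto the foliage, and effects were scored three weeks later using previously defined criteria.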

windgrass [7] = test: Test Example 5: herbicidal effect by foliage application, plastic box (Table 20, symbol L); type: in vivo, windgrass (Apera spica-venti); details: 320 g/ha, foliage application after 14-day growth, evaluated three weeks after application
Method in brief: as §1

blackgrass [8] = test: Test Example 5: herbicidal effect by foliage application, plastic box (Table 20, symbol J); type: in vivo, blackgrass (Alopecurus myosuroides); details: 320 g/ha, foliage application after 14-day growth, evaluated three weeks after application
Method in brief: as §1

wild oat [9] = test: Test Example 4: herbicidal effect by soil treatment (Table 19, symbol I); type: in vivo, wild oat (Avena fatua); details: amount of applied herbicide 320 g/ha
Method in brief: as §2

southern crabgrass [10] = test: Test Example 5: herbicidal effect by foliage application, plastic box (Table 20, symbol F); type: in vivo, southern crabgrass (Digitaria ciliaris); details: 320 g/ha, foliage application after 14-day growth, evaluated three weeks after application
Method in brief: as §1

Chinese sprangletop = test: Test Example 3: herbicidal effect by foliage application, Wagner pot (Table 18, symbol D); type: in vivo, chinese sprangletop (Leptochloa chinensis); details: 320 g/ha
Method in brief: as §3

chickweed [11] = test: Test Example 4: herbicidal effect by soil treatment (Table 19, symbol P); type: in vivo, common chickweed (Stellaria media); details: amount of applied herbicide 320 g/ha
Method in brief: as §2

Italian ryegrass [12] = test: Test Example 5: herbicidal effect by foliage application, plastic box (Table 20, symbol K); type: in vivo, Italian ryegrass (Lolium multiflorum); details: 320 g/ha, foliage application after 14-day growth, evaluated three weeks after application
Method in brief: as §1

windgrass [13] = test: Test Example 4: herbicidal effect by soil treatment (Table 19, symbol L); type: in vivo, windgrass (Apera spica-venti); details: amount of applied herbicide 320 g/ha
Method in brief: as §2

lambsquarters [14] = test: Test Example 5: herbicidal effect by foliage application, plastic box (Table 20, symbol O); type: in vivo, lambsquarters (Chenopodium album); details: 320 g/ha, foliage application after 14-day growth, evaluated three weeks after application
Method in brief: as §1

Italian ryegrass [15] = test: Test Example 4: herbicidal effect by soil treatment (Table 19, symbol K); type: in vivo, Italian ryegrass (Lolium multiflorum); details: amount of applied herbicide 320 g/ha
Method in brief: as §2

green foxtail [16] = test: Test Example 4: herbicidal effect by soil treatment (Table 19, symbol G); type: in vivo, green foxtail (Setaria viridis); details: amount of applied herbicide 320 g/ha
Method in brief: as §2

green foxtail [17] = test: Test Example 5: herbicidal effect by foliage application, plastic box (Table 20, symbol G); type: in vivo, green foxtail (Setaria viridis); details: 320 g/ha, foliage application after 14-day growth, evaluated three weeks after application
Method in brief: as §1

persian speedwell [18] = test: Test Example 4: herbicidal effect by soil treatment (Table 19, symbol R); type: in vivo, Persian speedwell (Veronica persica); details: amount of applied herbicide 320 g/ha
Method in brief: as §2

blackgrass [19] = test: Test Example 4: herbicidal effect by soil treatment (Table 19, symbol J); type: in vivo, blackgrass (Alopecurus myosuroides); details: amount of applied herbicide 320 g/ha
Method in brief: as §2

rice flat sedge = test: Test Example 3: herbicidal effect by foliage application, Wagner pot (Table 18, symbol E); type: in vivo, rice flat sedge (Cyperus iria); details: 320 g/ha
Method in brief: as §3

chickweed [20] = test: Test Example 5: herbicidal effect by foliage application, plastic box (Table 20, symbol P); type: in vivo, common chickweed (Stellaria media); details: 320 g/ha, foliage application after 14-day growth, evaluated three weeks after application
Method in brief: as §1

velvetleaf [21] = test: Test Example 4: herbicidal effect by soil treatment (Table 19, symbol M); type: in vivo, velvetleaf (Abutilon theophrasti); details: amount of applied herbicide 320 g/ha
Method in brief: as §2

persian speedwell [22] = test: Test Example 5: herbicidal effect by foliage application, plastic box (Table 20, symbol R); type: in vivo, Persian speedwell (Veronica persica); details: 320 g/ha, foliage application after 14-day growth, evaluated three weeks after application
Method in brief: as §1

southern crabgrass [23] = test: Test Example 4: herbicidal effect by soil treatment (Table 19, symbol F); type: in vivo, southern crabgrass (Digitaria ciliaris); details: amount of applied herbicide 320 g/ha
Method in brief: as §2

lambsquarters [24] = test: Test Example 4: herbicidal effect by soil treatment (Table 19, symbol O); type: in vivo, lambsquarters (Chenopodium album); details: amount of applied herbicide 320 g/ha
Method in brief: as §2

barnyard grass [25] = test: Test Example 4: herbicidal effect by soil treatment (Table 19, symbol H); type: in vivo, barnyard grass (Echinochloa crus-galli); details: amount of applied herbicide 320 g/ha
Method in brief: as §2

SMILES: COc1cc(F)ccc1-c1sc2c(F)cccc2c1-c1c(O)c(C)nn(C)c1=O [4-011]
- herbicidal effect on H: barnyard grass (evaluation grade 0-5) (barnyard grass [1]): 3 (Herbicidal rate of 40% or more and less than 70%)
- herbicidal effect on M: velvetleaf (evaluation grade 0-5) (velvetleaf [2]): 3 (Herbicidal rate of 40% or more and less than 70%)
- Herbicidal effect by soil treatment, N: redroot pigweed (redroot pigweed [3]): 2 (Herbicidal rate of 20% or more and less than 40%)
- herbicidal effect on N: redroot pigweed (evaluation grade 0-5) (redroot pigweed [4]): 3 (Herbicidal rate of 40% or more and less than 70%)
- herbicidal effect on I: wild oat (evaluation grade 0-5) (wild oat [5]): 0 (Herbicidal rate of 5% or less (almost no effect))
- herbicidal effect on barnyard grass (H) (barnyard grass [6]): 4 (Herbicidal rate of 70% or more and less than 90%)
- herbicidal effect on L: windgrass (evaluation grade 0-5) (windgrass [7]): 3 (Herbicidal rate of 40% or more and less than 70%)
- herbicidal effect on J: blackgrass (evaluation grade 0-5) (blackgrass [8]): 3 (Herbicidal rate of 40% or more and less than 70%)
- Herbicidal effect by soil treatment, I: wild oat (wild oat [9]): 0 (Herbicidal rate of 5% or less (almost no effect))
- herbicidal effect on F: southern crabgrass (evaluation grade 0-5) (southern crabgrass [10]): 2 (Herbicidal rate of 20% or more and less than 40%)
- herbicidal effect on Chinese sprangletop (D) (Chinese sprangletop): 3 (Herbicidal rate of 40% or more and less than 70%)
- Herbicidal effect by soil treatment, P: chickweed (chickweed [11]): 3 (Herbicidal rate of 40% or more and less than 70%)
- herbicidal effect on K: Italian ryegrass (evaluation grade 0-5) (Italian ryegrass [12]): 3 (Herbicidal rate of 40% or more and less than 70%)
- Herbicidal effect by soil treatment, L: windgrass (windgrass [13]): 0 (Herbicidal rate of 5% or less (almost no effect))
- herbicidal effect on O: lambsquarters (evaluation grade 0-5) (lambsquarters [14]): 3 (Herbicidal rate of 40% or more and less than 70%)
- Herbicidal effect by soil treatment, K: Italian ryegrass (Italian ryegrass [15]): 0 (Herbicidal rate of 5% or less (almost no effect))
- Herbicidal effect by soil treatment, G: green foxtail (green foxtail [16]): 3 (Herbicidal rate of 40% or more and less than 70%)
- herbicidal effect on G: green foxtail (evaluation grade 0-5) (green foxtail [17]): 5 (Herbicidal rate of 90% or more (almost completely withered))
- Herbicidal effect by soil treatment, R: persian speedwell (persian speedwell [18]): 0 (Herbicidal rate of 5% or less (almost no effect))
- Herbicidal effect by soil treatment, J: blackgrass (blackgrass [19]): 0 (Herbicidal rate of 5% or less (almost no effect))
- herbicidal effect on rice flat sedge (E) (rice flat sedge): 5 (Herbicidal rate of 90% or more (almost completely withered))
- herbicidal effect on P: chickweed (evaluation grade 0-5) (chickweed [20]): 5 (Herbicidal rate of 90% or more (almost completely withered))
- Herbicidal effect by soil treatment, M: velvetleaf (velvetleaf [21]): 0 (Herbicidal rate of 5% or less (almost no effect))
- herbicidal effect on R: persian speedwell (evaluation grade 0-5) (persian speedwell [22]): 5 (Herbicidal rate of 90% or more (almost completely withered))
- Herbicidal effect by soil treatment, F: southern crabgrass (southern crabgrass [23]): 0 (Herbicidal rate of 5% or less (almost no effect))
- Herbicidal effect by soil treatment, O: lambsquarters (lambsquarters [24]): 3 (Herbicidal rate of 40% or more and less than 70%)
- Herbicidal effect by soil treatment, H: barnyard grass (barnyard grass [25]): 3 (Herbicidal rate of 40% or more and less than 70%)
